Test results from patent US12516056B2, “Compounds for inhibition of janus kinase 1” (MANKIND PHARMA LTD., priority 2019, dated 2026).
Read-outs that look alike come from different tables or passages of the source.

How the values were obtained:
[1] = system: STAT3 phosphorylation by IL-6 in TF-1 cells; test: JAK cellular assay: STAT3 phosphorylation by IL-6 in TF-1 cells (HTRF); assay type: cell-based; details: Homo sapiens, TF-1, TF-1 cells
Summary of the method: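 TF-1 cells starved overnight in low-serum OptiMEM, then 120,000/well in RPMI, preincubated with compound 30 min at 37 °C (0.2% DMSO final). Stimulation 20 min with IL-6 30 ng/ml (pSTAT3) or GMCSF 5 ng/ml (pSTAT5); lysate phospho-STAT by HTRF, unstimulated background subtracted.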

[2] = biological target: T1, Recombinant JAK1 (Homo sapiens, UniProt P23458); test: JAK biochemical assay (LANCE Ultra TR-FRET), JAK1
T1 construct: purchased Carna Biosciences
Summary of the method: (§1)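 TR-FRET read-out of ULight substrate phosphorylation by recombinant kinase gives % inhibition relative to vehicle. The assay buffer is HEPES pH 7.5 with EGTA, MgCl2, DTT and Tween-20.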

[3] = biological target: T2, Recombinant JAK2 (Homo sapiens, UniProt O60674); test: JAK biochemical assay (LANCE Ultra TR-FRET), JAK2
T2 construct: purchased Carna Biosciences
Summary of the method: as §1

[4] = biological target: T3, Recombinant TYK2 (Homo sapiens, UniProt P29597); test: JAK biochemical assay (LANCE Ultra TR-FRET), TYK2
T3 construct: purchased Carna Biosciences
Summary of the method: as §1

[5] = system: STAT5 phosphorylation by IL-2 in HT-2 cells; test: STAT5 phosphorylation by IL-2 in HT-2 cells (HTRF); assay type: cell-based; details: HT2, HT-2 cells
Summary of the method: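 Starved HT-2 cells (120,000/well) were preincubated 30 min at 37 °C with compound (0.2% DMSO), then stimulated 20 min with human IL-2 (50 U/ml). pSTAT5 in lysates measured by HTRF, with unstimulated-cell background subtracted.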

[6] = system: oxazolone induced colitis; test: Murine model of oxazolone induced colitis; assay type: in vivo, Male BALB/c mice; details: 30 mpk, PO, BID
[7] = IL-6 30 ng/ml, pSTAT3 HTRF, read-out: Cell Based Assay (μM) TF-1/IL-6/pSTAT3
[8] = IL-6 stimulation, read-out: Cell based IC50 (μM) TF-1/IL-6
[9] = read-out: Biochemical IC50 (nM) JAK1
[10] = recombinant JAK1, TR-FRET, read-out: Biochemical Assay (μM) JAK1
[11] = read-out: Biochemical IC50 (nM) JAK2
[12] = read-out: Biochemical IC50 (nM) TYK2
[13] = recombinant TYK2, TR-FRET, read-out: Biochemical Assay (μM) TYK2
[14] = IL-2 50 U/ml, pSTAT5 HTRF, read-out: Cell Based Assay (μM) HT-2/IL-2/pSTAT5
[15] = IL-2 stimulation, read-out: Cell based IC50 (μM) HT-2/IL-2

T1 sequence (P23458 whole entry): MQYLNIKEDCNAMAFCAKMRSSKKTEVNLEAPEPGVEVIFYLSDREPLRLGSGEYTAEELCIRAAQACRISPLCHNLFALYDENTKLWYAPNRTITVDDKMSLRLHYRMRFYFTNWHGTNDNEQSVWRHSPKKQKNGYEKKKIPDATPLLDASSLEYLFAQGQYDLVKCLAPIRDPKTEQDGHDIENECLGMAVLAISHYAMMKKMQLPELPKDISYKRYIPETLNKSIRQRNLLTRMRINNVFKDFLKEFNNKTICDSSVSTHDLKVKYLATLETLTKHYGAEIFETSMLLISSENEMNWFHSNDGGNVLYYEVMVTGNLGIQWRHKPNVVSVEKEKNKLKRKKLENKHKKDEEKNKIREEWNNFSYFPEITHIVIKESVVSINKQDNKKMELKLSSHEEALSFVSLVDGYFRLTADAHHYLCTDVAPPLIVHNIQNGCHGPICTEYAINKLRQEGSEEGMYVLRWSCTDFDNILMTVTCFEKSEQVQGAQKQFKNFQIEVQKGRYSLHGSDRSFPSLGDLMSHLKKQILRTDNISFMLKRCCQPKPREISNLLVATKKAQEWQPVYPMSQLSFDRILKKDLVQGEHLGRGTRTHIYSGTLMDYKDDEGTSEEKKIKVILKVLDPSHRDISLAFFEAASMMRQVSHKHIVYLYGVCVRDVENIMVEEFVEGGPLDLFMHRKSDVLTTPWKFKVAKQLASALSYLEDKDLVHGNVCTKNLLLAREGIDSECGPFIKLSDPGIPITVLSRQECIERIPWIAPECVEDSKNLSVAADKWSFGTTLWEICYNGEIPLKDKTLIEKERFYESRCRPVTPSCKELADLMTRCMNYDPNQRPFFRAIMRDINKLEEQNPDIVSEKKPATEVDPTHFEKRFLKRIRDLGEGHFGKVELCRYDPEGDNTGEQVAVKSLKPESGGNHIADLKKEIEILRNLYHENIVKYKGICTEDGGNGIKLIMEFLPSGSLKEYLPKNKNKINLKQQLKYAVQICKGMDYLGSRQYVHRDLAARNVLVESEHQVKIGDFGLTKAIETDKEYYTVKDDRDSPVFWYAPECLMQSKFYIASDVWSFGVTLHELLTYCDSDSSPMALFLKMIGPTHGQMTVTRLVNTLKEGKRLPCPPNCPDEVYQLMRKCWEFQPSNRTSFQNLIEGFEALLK
T2 sequence (O60674 whole entry): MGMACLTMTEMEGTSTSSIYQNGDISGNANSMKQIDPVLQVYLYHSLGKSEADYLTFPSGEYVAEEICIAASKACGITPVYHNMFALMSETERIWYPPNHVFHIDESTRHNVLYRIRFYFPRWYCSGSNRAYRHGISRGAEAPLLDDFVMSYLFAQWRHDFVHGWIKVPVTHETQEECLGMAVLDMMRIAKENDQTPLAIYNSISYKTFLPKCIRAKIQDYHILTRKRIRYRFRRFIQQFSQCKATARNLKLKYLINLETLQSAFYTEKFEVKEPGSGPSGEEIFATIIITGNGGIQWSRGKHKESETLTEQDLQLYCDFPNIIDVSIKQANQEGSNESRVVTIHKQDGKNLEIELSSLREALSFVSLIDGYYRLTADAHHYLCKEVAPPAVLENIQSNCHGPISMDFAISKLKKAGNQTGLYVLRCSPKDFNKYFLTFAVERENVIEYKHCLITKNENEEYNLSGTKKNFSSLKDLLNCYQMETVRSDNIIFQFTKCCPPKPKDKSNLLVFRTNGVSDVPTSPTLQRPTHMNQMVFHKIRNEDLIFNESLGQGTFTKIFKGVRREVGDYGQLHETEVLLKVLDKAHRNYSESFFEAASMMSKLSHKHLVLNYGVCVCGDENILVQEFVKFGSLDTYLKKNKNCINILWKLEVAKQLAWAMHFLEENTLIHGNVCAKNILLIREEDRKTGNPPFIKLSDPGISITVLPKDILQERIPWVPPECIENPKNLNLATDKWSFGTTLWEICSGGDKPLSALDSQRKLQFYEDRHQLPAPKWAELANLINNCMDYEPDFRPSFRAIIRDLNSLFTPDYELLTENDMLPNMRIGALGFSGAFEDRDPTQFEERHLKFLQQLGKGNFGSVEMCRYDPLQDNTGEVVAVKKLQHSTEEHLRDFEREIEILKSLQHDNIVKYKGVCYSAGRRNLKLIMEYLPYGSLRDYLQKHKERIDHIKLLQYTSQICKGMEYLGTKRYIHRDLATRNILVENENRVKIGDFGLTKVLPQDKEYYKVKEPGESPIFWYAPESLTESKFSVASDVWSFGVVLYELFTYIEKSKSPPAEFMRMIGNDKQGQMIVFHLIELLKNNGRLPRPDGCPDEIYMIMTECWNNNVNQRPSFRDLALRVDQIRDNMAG
T3 sequence (P29597 whole entry): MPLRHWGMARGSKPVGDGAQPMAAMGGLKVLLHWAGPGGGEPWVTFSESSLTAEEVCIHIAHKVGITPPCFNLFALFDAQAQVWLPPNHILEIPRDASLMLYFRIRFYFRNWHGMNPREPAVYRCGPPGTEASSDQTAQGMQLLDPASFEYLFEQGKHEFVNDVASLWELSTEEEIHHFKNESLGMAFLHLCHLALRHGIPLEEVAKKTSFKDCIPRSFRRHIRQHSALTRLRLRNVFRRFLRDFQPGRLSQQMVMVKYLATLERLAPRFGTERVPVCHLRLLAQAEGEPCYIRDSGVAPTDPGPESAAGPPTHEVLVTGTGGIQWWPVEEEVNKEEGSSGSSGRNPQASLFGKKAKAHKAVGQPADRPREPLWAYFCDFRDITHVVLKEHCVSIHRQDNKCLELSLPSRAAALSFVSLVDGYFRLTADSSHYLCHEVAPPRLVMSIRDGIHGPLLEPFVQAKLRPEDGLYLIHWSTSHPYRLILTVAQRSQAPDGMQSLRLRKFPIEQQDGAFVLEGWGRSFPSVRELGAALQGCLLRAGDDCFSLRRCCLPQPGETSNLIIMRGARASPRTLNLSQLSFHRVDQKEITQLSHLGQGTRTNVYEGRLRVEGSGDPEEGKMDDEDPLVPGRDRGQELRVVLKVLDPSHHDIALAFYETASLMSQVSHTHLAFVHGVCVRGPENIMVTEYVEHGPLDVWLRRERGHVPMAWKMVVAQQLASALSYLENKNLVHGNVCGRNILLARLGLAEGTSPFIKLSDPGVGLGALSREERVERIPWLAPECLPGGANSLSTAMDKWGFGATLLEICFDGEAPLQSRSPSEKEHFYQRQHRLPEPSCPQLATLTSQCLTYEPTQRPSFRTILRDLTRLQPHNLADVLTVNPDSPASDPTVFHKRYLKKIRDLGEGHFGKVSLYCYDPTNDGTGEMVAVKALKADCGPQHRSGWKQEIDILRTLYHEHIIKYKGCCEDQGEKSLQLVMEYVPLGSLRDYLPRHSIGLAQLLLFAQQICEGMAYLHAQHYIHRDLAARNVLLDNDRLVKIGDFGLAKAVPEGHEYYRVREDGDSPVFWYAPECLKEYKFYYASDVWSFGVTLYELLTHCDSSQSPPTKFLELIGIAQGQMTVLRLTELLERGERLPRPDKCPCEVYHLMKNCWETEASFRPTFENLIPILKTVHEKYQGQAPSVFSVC

Row | IC50 [1, 7] | IC50 [1, 8] | IC50 [2, 9] | IC50 [2, 10] | IC50 [3, 11] | IC50 [4, 12] | IC50 [4, 13] | IC50 [5, 14] | IC50 [5, 15] | IC50 ([3]; recombinant JAK2, TR-FRET, read-out: Biochemical Assay (μM) JAK2) | Structure (SMILES) | efficacy in comparison to Filgotinib (colitis model) [6]
1 | 0.6 µM | 0.6 µM | 8 nM | < 100 nM | 152 nM | 850 nM | > 1000 nM | 2.3 µM | 2.3 µM | – | CN1CCC(C(O)(c2ccc(-n3cc(-c4ccnc5[nH]cnc45)cn3)nc2)C(F)(F)F)CC1 (centres unmarked) [Example 1133, 1-(6-(4-(3H-imidazo[4,5-b]pyridin-7-yl)-1H-pyrazol-1-yl)pyridin-3-yl)-2,2,2-trifluoro-1-(1-methylpiperidin-4-yl)ethanol] | –
2 | 0.32 µM | 0.3 µM | 0.5 nM | < 100 nM | 40 nM | > 100 nM | > 1000 nM | 0.75 µM | 0.7 µM | < 100 nM | CC(C)NC(=O)CC[C@@H](c1ccc(-n2cc(-c3ccnc4[nH]cnc34)cn2)nc1)C(F)(F)F [Example 1215, (S)-4-(6-(4-(3H-imidazo[4,5-b]pyridin-7-yl)-1H-pyrazol-1-yl)pyridin-3-yl)-5,5,5-trifluoro-N-isopropylpentanamide] | better efficacy
